Assay results taken from patent US11498909B2, “Compound acting as antibiotics” (KBP BIOSCIENCES CO., LTD., priority 2018, dated 2022).
Values after ≈ are worked out from the molar mass of the structure shown. Like-named read-outs stand apart in the source and are kept apart here.

Experiments:
Pseudomonas aeruginosa [1] = experiment: In vitro antibacterial activity, agar dilution MIC (Experiment 1); type: cell-based
Method: (§1) Tested strains: all the clinically separated strains below were purchased from public facilities.
(§2) Escherichia coli ATCC25922, Pseudomonas aeruginosa ATCC27853, Klebsiella pneumoniae ATCC700603, and the like.
(§3) Tested Samples: Imipenem, Ceftazidime: Commercial Products, the Following Experiments were Carried Out According to the Content of an Effective Ingredient in Each Commercial Product;
(§4) The compounds of the present invention, their chemical names, and preparation methods are shown in the preparation example of each compound.
(§5) Experiment method: Agar dilution method, refer to National Committee for Clinical Laboratory Standards. 2006. Methods for Dilution Antimicrobial Susceptibility Tests for Bacteria That Grow Aerobically; Approved Standard—Seventh Edition M7-A7, Vol 26, No. 2, 2006, to determine the MIC of the compound. MIC represents the minimum inhibitory concentration.

Escherichia coli = experiment: as above; type: cell-based
Method: as §1, §2, §3, §4, §5

Klebsiella pneumoniae = experiment: as above; type: cell-based
Method: as §1, §2, §3, §4, §5

[2] = Pharmacokinetics (PK) determination in SD rats (Experiment 4); type: in vivo; settings: plasma; for Cl_obs / Vz_obs / t1/2z / λ_z: IV 2 mg/kg; for AUC(0-t) / AUC(0-inf): Sprague-Dawley (SD), rat, iv, 2 mg/kg; for AUC(0-inf): read-out: AUCINF_obs
Method: The compound of the present invention, self-prepared and dissolved in a suitable solvent.
Instrument and equipment: API4000 LC-MS/MS
Chromatographic column: Waters XBridge C18(2.1×50 mm, […])
Rat blood collection: Animals were fixed. The animal's tail was heated with a water bathtub 10 minutes before each time point. About 200 μL of the blood was collected through the caudal vein. After the blood collection, the blood was placed in an anticoagulation tube containing heparin sodium. The blood samples were centrifuged at 8000 rpm for 6 minutes at 4° C. to obtain plasma samples. The plasma must be prepared within 30 minutes after the blood collection. The plasma was stored in a refrigerator at −80° C. before the test.
(1) Test samples were removed from the refrigerator (−80° C.), naturally thawed at room temperature, and then vortexed for 5 minutes;
(2) 20 μL sample was precisely pipetted to a 1.5 mL centrifuge tube;
(3) 200 μL of the internal standard solution was added;
(4) The mixture was vortexed for 5 minutes and centrifuged for 5 minutes (12000 revolutions per minute);
(5) 100 μL of the supernate was precisely pipetted, 100 μL of water was added, the mixture was vortexed for 5 minutes, and the sample was sent to LC-MS/MS for analysis.
The results of the concentrations of the test samples (plasma samples) were output with Analyst 1.6.1 of AB Corporation. The meaning value, the standard deviation, the coefficient of variation, and other parameters (not necessary to calculate the parameter that can be directly output from Analyst 1.6.1) were calculated with Microsoft Excel, and the PK parameter is calculated with Pharsight Phoenix 6.1 software.

Pseudomonas aeruginosa [3] = experiment: In vitro antibacterial activity against Pseudomonas aeruginosa, agar dilution MIC (Experiment 3); type: cell-based; settings: CLSI 2018 (Table 5)
Method: Tested samples: the compound of the present invention, prepared according to the preparation example method; Compound C, prepared with reference to WO2008154642A2.
With reference to the steps of the agar dilution method in the 2018 USA Clinical and Laboratory Standards Institute (CLSI), the determination of the minimum inhibitory concentration (MIC) of the compounds against the strain(s) was carried out.
Preparation of drug-containing plate: (1) a drug solution with the highest concentration was prepared, and the highest concentration of each compound was 160 μg/mL. (2) For each compound, the drug solution with the highest concentration was subjected to the double dilution, and a total of 10 concentration gradients was obtained; for each of dilution gradient, 2 mL of the drug solution was added to 18 mL MH agar solution which had been autoclaved at 121° C. and cooled to about 50° C.; the mixture was uniformly mixed, left stand and cooled to give a drug-containing plate; and the plate was labeled. The final concentrations of the compound were respectively 16, 8, 4, 2, 1, 0.5, 0.25, 0.125, 0.06 and 0.03 μg/mL.
Inoculum preparation and inoculation: A fresh single colony was selected, diluted with 0.9% sodium chloride injection, adjusted to 0.5 #McFarland turbidity, and then diluted 10 times with 0.9% sodium chloride injection, then inoculated with an automatic multi-point inoculation instrument to the labeled drug-containing plate.

[4] = tested on: polymyxin-resistant mcr-1 positive Enterobacteriaceae; experiment: In vitro antibacterial effect on polymyxin-resistant mcr-1 positive Enterobacteriaceae, agar dilution MIC (Experiment 2); type: cell-based, Escherichia coli; settings: for MIC50 / MIC90: Escherichia coli; for MIC50: read-out: MIC50 Value, polymyxin-resistant mcr-1 positive Escherichia coli, agar dilution; for MIC90: read-out: MIC90 Value, polymyxin-resistant mcr-1 positive Escherichia coli, agar dilution; for MIC50 Value / MIC90 Value: polymyxin-resistant mcr-1 positive Escherichia coli, agar dilution
Method: Tested samples: the compounds of the present invention, prepared according to the methods of the preparation examples;
Polymyxin E sulphate, Ampicillin, Cefotaxime, Gentamicin, Ciprofloxacin, Tetracycline, and Bactrim were all commercial products, the following experiments were carried out according to the content of an effective ingredient in each commercial product.
Tested strains: Escherichia coli carrying mcr-1 gene isolated from animals and Escherichia coli ATCC25922, a quality control strain, were provided by South China Agricultural University.
With reference to the agar dilution method in CLSI, the MIC value of the tested drugs to the polymyxin resistant mcr-1 positive Escherichia coli were determined.
Preparation of drug-containing agar plates: a drug solution with the highest concentration was prepared for each compound; the drug solution with the highest concentration was subjected to the double dilution; for each of dilution gradient, 1 mL (20×drug working solution) of the drug solution was added to 19 mL MH agar at 45-50° C.; immediately after addition, the agar and the drug solution were uniformly mixed to give a drug-containing agar plate with final concentrations of […], and the plate was solidified for later use; and in the meanwhile, a growth control group was arranged.
Inoculum preparation and culture: the strains stored at −80° C. were rejuvenated and formulated with broth so that the turbidity reached or exceeded 0.5 #McFarland unit; a 96-well plate was used as the inoculation tank, and the bacterial solution was diluted with sodium chloride injection so that the content of bacteria inoculated on the agar was 10^4 CFU/point. A multi-point inoculation instrument was used to inoculate the bacterial solution to the surface of the labeled drug-containing agar. After the water in the inoculation point was completely absorbed by the agar, the plate was placed upside down in a 37° C. constant-temperature incubator and incubated for 16-20 hours.

[5] = agar dilution (Table 3), read-out: MIC50
[6] = agar dilution (Table 3), read-out: MIC90

Molecule: C[C@@H](O)[C@H](NC(=O)c1ccc(C#CC#Cc2ccc(CN3CCOCC3)o2)cc1)C(=O)NO [Compound 23, N-((2S,3R)-3-hydroxy-1-(hydroxyamino)-1-oxobutan-2-yl)-4-((5-(morpholinomethyl)furan-2-yl)buta-1,3-diynyl)benzamide]
- MIC50 (Pseudomonas aeruginosa [1]; [5]): 1 µg/mL (≈ 2.21 µM)
- MIC90 (Pseudomonas aeruginosa [1]; [6]): 8 µg/mL (≈ 17.7 µM)
- MIC50 (Escherichia coli; agar dilution, read-out: MIC50): 0.25 µg/mL (≈ 0.554 µM)
- MIC90 (Escherichia coli; agar dilution, read-out: MIC90): 0.25 µg/mL (≈ 0.554 µM)
- MIC50 (Klebsiella pneumoniae; agar dilution, read-out: MIC50): 1 µg/mL (≈ 2.21 µM)
- MIC90 (Klebsiella pneumoniae; agar dilution, read-out: MIC90): 1 µg/mL (≈ 2.21 µM)
- Cl_obs [2]: 30 ± 8.33 mL/min/kg
- Vz_obs [2]: 0.52 ± 0.02 L/kg
- t1/2z [2]: 12.6 ± 3.6 min
- λ_z [2]: 3.47 ± 1.09 h⁻¹
- AUC(0-t) [2]: 1160 ± 278 ng·h/mL
- AUC(0-inf) [2]: 1160 ± 277 ng·h/mL

Molecule: C[C@@H](O)[C@H](NC(=O)c1ccc(C#CC#Cc2ccc(CO)n2C)cc1)C(=O)NO [Compound 33, N-((2S,3R)-3-hydroxy-1-(hydroxamino)-1-oxobutan-2-yl)-4-((5-(hydroxymethyl)-1-methyl-1H-pyrrol-2-yl)buta-1,3-diynyl)benzamide]
- MIC50 (Pseudomonas aeruginosa [1]): 1 µg/mL (≈ 2.53 µM)
- MIC90 (Pseudomonas aeruginosa [1]): 8 µg/mL (≈ 20.2 µM)
- MIC50 (Escherichia coli): 0.125 µg/mL (≈ 0.316 µM)
- MIC90 (Escherichia coli): 0.125 µg/mL (≈ 0.316 µM)
- MIC50 (Klebsiella pneumoniae): 0.5 µg/mL (≈ 1.26 µM)
- MIC90 (Klebsiella pneumoniae): 1 µg/mL (≈ 2.53 µM)
- Cl_obs [2]: 56.5 ± 22.3 mL/min/kg
- Vz_obs [2]: 1.21 ± 0.34 L/kg
- t1/2z [2]: 15.6 ± 2.4 min
- λ_z [2]: 2.75 ± 0.50 h⁻¹
- AUC(0-t) [2]: 666 ± 318 ng·h/mL
- AUC(0-inf) [2]: 671 ± 315 ng·h/mL

Molecule: C[C@@H](O)[C@H](NC(=O)c1ccc(C#CC#Cc2ccc(CO)s2)cc1)C(=O)NO [Compound 41, N-((2S,3R)-3-hydroxy-1-(hydroxyamino)-1-oxobutan-2-yl)-4-((5-(hydroxymethyl)thienyl-2-yl)buta-1,3-diynyl)benzamide]
- MIC50 (Pseudomonas aeruginosa [1]; [5]): 0.25 µg/mL (≈ 0.627 µM)
- MIC90 (Pseudomonas aeruginosa [1]; [6]): 1 µg/mL (≈ 2.51 µM)
- MIC50 (Escherichia coli; agar dilution, read-out: MIC50): ≤ 0.03 µg/mL
- MIC90 (Escherichia coli; agar dilution, read-out: MIC90): 0.06 µg/mL (≈ 0.151 µM)
- MIC50 (Klebsiella pneumoniae; agar dilution, read-out: MIC50): 0.125 µg/mL (≈ 0.314 µM)
- MIC90 (Klebsiella pneumoniae; agar dilution, read-out: MIC90): 0.25 µg/mL (≈ 0.627 µM)
- Cl_obs [2]: 22 ± 5.5 mL/min/kg
- Vz_obs [2]: 0.61 ± 0.20 L/kg
- t1/2z [2]: 19.2 ± 2.4 min
- λ_z [2]: 2.21 ± 0.29 h⁻¹
- AUC(0-t) [2]: 1590 ± 447 ng·h/mL
- AUC(0-inf) [2]: 1590 ± 446 ng·h/mL

Molecule: C[C@@H](O)[C@H](NC(=O)c1ccc(C#CC#Cc2ccc(CO)cc2)cc1)C(=O)NO [Compound C]
- MIC50 (Pseudomonas aeruginosa [3]): 4 µg/mL (≈ 10.2 µM)
- MIC90 (Pseudomonas aeruginosa [3]): >16 µg/mL
- MIC90 (Pseudomonas aeruginosa [3]; read-out: MIC90): > 16 µg/mL

Molecule: C[C@@H](O)[C@H]1C(=O)N2C(C(=O)O)=C(SCCN=CN)C[C@H]12 [Imipenem, reference compound]
- MIC50 (Pseudomonas aeruginosa [1]; [5]): 2 µg/mL (≈ 6.68 µM)
- MIC90 (Pseudomonas aeruginosa [1]; [6]): 16 µg/mL (≈ 53.4 µM)
- MIC50 [4]: 0.125 µg/mL (≈ 0.418 µM)
- MIC90 [4]: 4 µg/mL (≈ 13.4 µM)

Molecule: CN(C)[C@@H]1C(O)=C(C(N)=O)C(=O)[C@@]2(O)C(O)=C3C(=O)c4c(O)cccc4[C@@](C)(O)[C@H]3C[C@@H]12 [Tetracycline]
- MIC50 [4]: 32 µg/mL (≈ 72 µM)
- MIC90 [4]: 64 µg/mL (≈ 144 µM)

Molecule: Gentamicin
- MIC50 Value [4]: 4 µg/mL
- MIC90 Value [4]: 64 µg/mL

Molecule: Polymyxin E sulphate
- MIC50 Value [4]: 16 µg/mL
- MIC90 Value [4]: 32 µg/mL
